Data as given in patent publication US6525001B1, “Substituted pyrimidine and pyridine herbicides” (Mid-American Commercialization Corporation, priority 1997, dated 2003).

Key:
Experiment in all cases: Test B pre-/postemergence
Type in all cases: in vivo
Parameters in all cases: key: 0 is no effect; 10 is complete control
[1] = tested on: pigweed (Amaranthus retroflexus)
Procedure, shortened: (§1)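 Response scores run from 0, meaning no effect, to 10, meaning complete control, assigned by eye relative to controls twelve to sixteen days after spraying. Treatment was both preemergence on planted seed and postemergence on plants at the 1- to 4-leaf stage.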

[2] = tested on: crabgrass (Digitaria sanguinalis)
Procedure, shortened: as §1

[3] = tested on: sugar beet (Beta vulgaris)
Procedure, shortened: as §1

[4] = tested on: bedstraw (Galium aparine)
Procedure, shortened: as §1

rape (Brassica napus) = tested on: rape (Brassica napus)
Procedure, shortened: as §1

corn (Zea mays) = tested on: corn (Zea mays)
Procedure, shortened: as §1

soybean (Glycine max) = tested on: soybean (Glycine max)
Procedure, shortened: as §1

[5] = tested on: broadleaf signalgrass (Brachiaria decumbens)
Procedure, shortened: as §1

[6] = tested on: giant foxtail (Setaria faberii)
Procedure, shortened: as §1

[7] = tested on: momingglory (Ipomoea hederacea)
Procedure, shortened: as §1

[8] = tested on: purple nutsedge (Cyperus rotundus)
Procedure, shortened: as §1

[9] = tested on: cocklebur (Xanthium strumarium)
Procedure, shortened: as §1

[10] = tested on: velvetleaf (Abutilon theophrasti)
Procedure, shortened: as §1

[11] = tested on: wheat (Triticum aestivum)
Procedure, shortened: as §1

[12] = Preemergence, Rate 62 g/ha, scale of 0 to 10

Q: With `Cc1cnc(-n2ccc(C(F)(F)F)n2)nc1C(=O)c1cccc(OC(F)(F)F)c1` [Compound 66] as the molecule, how does the “Plant response rating, Redroot pigweed” value [1, 12] read?
A: 7

Q: And the “Redroot pigweed plant response rating” value ([1]; Rate 62 g/ha, Postemergence)?
A: 8

Q: What about the “Redroot pigweed plant response rating” value ([1]; Rate 125 g/ha, Postemergence) of the same molecule?
A: 9

Q: What about the “Plant response rating, Redroot pigweed” value ([1]; Rate 125 g/ha, Preemergence) of the same molecule?
A: 9

Q: And the “Plant response rating, Redroot pigweed” value ([1]; Rate 250 g/ha, Postemergence)?
A: 10

Q: And the “Plant response rating, Redroot pigweed” value ([1]; Rate 250 g/ha, Preemergence)?
A: 9

Q: And the “Plant response rating, Redroot pigweed” value ([1]; Rate 500 g/ha, Postemergence)?
A: 10

Q: What about the “Plant response rating, Redroot pigweed” value ([1]; Rate 500 g/ha, Preemergence) of the same molecule?
A: 10

Q: And the “Plant response rating, Crabgrass” value [2, 12]?
A: 6

Q: And the “Crabgrass plant response rating” value ([2]; Rate 62 g/ha, Postemergence)?
A: 2

Q: And the “Crabgrass plant response rating” value ([2]; Rate 125 g/ha, Postemergence)?
A: 7

Q: And the “Plant response rating, Crabgrass” value ([2]; Rate 125 g/ha, Preemergence)?
A: 9

Q: What about the “Plant response rating, Crabgrass” value ([2]; Rate 250 g/ha, Postemergence) of the same molecule?
A: 8

Q: What about the “Plant response rating, Crabgrass” value ([2]; Rate 250 g/ha, Preemergence) of the same molecule?
A: 9

Q: What about the “Plant response rating, Crabgrass” value ([2]; Rate 500 g/ha, Postemergence) of the same molecule?
A: 10

Q: What about the “Plant response rating, Crabgrass” value ([2]; Rate 500 g/ha, Preemergence) of the same molecule?
A: 9

Q: And the “Plant response rating, Sugarbeets” value [3, 12]?
A: 9

Q: And the “Sugarbeets plant response rating” value ([3]; Rate 62 g/ha, Postemergence)?
A: 10

Q: What about the “Sugarbeets plant response rating” value ([3]; Rate 125 g/ha, Postemergence) of the same molecule?
A: 10

Q: And the “Plant response rating, Sugarbeets” value ([3]; Rate 125 g/ha, Preemergence)?
A: 10

Q: And the “Plant response rating, Sugarbeets” value ([3]; Rate 250 g/ha, Postemergence)?
A: 10

Q: What about the “Plant response rating, Sugarbeets” value ([3]; Rate 250 g/ha, Preemergence) of the same molecule?
A: 10

Q: And the “Plant response rating, Sugarbeets” value ([3]; Rate 500 g/ha, Postemergence)?
A: 10

Q: And the “Plant response rating, Sugarbeets” value ([3]; Rate 500 g/ha, Preemergence)?
A: 10

Q: And the “Plant response rating, Bedstraw” value [4, 12]?
A: 1

Q: And the “Bedstraw plant response rating” value ([4]; Rate 62 g/ha, Postemergence)?
A: 2

Q: And the “Bedstraw plant response rating” value ([4]; Rate 125 g/ha, Postemergence)?
A: 3

Q: And the “Plant response rating, Bedstraw” value ([4]; Rate 125 g/ha, Preemergence)?
A: 2

Q: And the “Plant response rating, Bedstraw” value ([4]; Rate 250 g/ha, Postemergence)?
A: 6

Q: And the “Plant response rating, Bedstraw” value ([4]; Rate 250 g/ha, Preemergence)?
A: 3

Q: And the “Plant response rating, Bedstraw” value ([4]; Rate 500 g/ha, Postemergence)?
A: 8

Q: And the “Plant response rating, Bedstraw” value ([4]; Rate 500 g/ha, Preemergence)?
A: 8

Q: And the “Plant response rating, Rape” value (rape (Brassica napus); [12])?
A: 0

Q: What about the “Rape plant response rating” value (rape (Brassica napus); Rate 62 g/ha, Postemergence) of the same molecule?
A: 3

Q: And the “Rape plant response rating” value (rape (Brassica napus); Rate 125 g/ha, Postemergence)?
A: 3

Q: What about the “Plant response rating, Rape” value (rape (Brassica napus); Rate 125 g/ha, Preemergence) of the same molecule?
A: 0

Q: And the “Plant response rating, Rape” value (rape (Brassica napus); Rate 250 g/ha, Postemergence)?
A: 7

Q: What about the “Plant response rating, Rape” value (rape (Brassica napus); Rate 250 g/ha, Preemergence) of the same molecule?
A: 4

Q: And the “Plant response rating, Rape” value (rape (Brassica napus); Rate 500 g/ha, Postemergence)?
A: 7

Q: And the “Plant response rating, Rape” value (rape (Brassica napus); Rate 500 g/ha, Preemergence)?
A: 8

Q: And the “Plant response rating, Corn” value (corn (Zea mays); [12])?
A: 0

Q: What about the “Corn plant response rating” value (corn (Zea mays); Rate 62 g/ha, Postemergence) of the same molecule?
A: 1

Q: What about the “Corn plant response rating” value (corn (Zea mays); Rate 125 g/ha, Postemergence) of the same molecule?
A: 2

Q: And the “Plant response rating, Corn” value (corn (Zea mays); Rate 125 g/ha, Preemergence)?
A: 1

Q: What about the “Plant response rating, Corn” value (corn (Zea mays); Rate 250 g/ha, Postemergence) of the same molecule?
A: 2

Q: What about the “Plant response rating, Corn” value (corn (Zea mays); Rate 250 g/ha, Preemergence) of the same molecule?
A: 1

Q: And the “Plant response rating, Corn” value (corn (Zea mays); Rate 500 g/ha, Postemergence)?
A: 3

Q: What about the “Plant response rating, Corn” value (corn (Zea mays); Rate 500 g/ha, Preemergence) of the same molecule?
A: 3

Q: And the “Plant response rating, Soybean” value (soybean (Glycine max); [12])?
A: 0

Q: And the “Soybean plant response rating” value (soybean (Glycine max); Rate 62 g/ha, Postemergence)?
A: 5

Q: What about the “Soybean plant response rating” value (soybean (Glycine max); Rate 125 g/ha, Postemergence) of the same molecule?
A: 5

Q: And the “Plant response rating, Soybean” value (soybean (Glycine max); Rate 125 g/ha, Preemergence)?
A: 0

Q: And the “Plant response rating, Soybean” value (soybean (Glycine max); Rate 250 g/ha, Postemergence)?
A: 6

Q: What about the “Plant response rating, Soybean” value (soybean (Glycine max); Rate 250 g/ha, Preemergence) of the same molecule?
A: 0

Q: What about the “Plant response rating, Soybean” value (soybean (Glycine max); Rate 500 g/ha, Postemergence) of the same molecule?
A: 7

Q: What about the “Plant response rating, Soybean” value (soybean (Glycine max); Rate 500 g/ha, Preemergence) of the same molecule?
A: 1

Q: And the “B. signalgrass plant response rating” value ([5]; Rate 62 g/ha, Postemergence)?
A: 2

Q: What about the “B. signalgrass plant response rating” value ([5]; Rate 62 g/ha, Preemergence) of the same molecule?
A: 9

Q: What about the “B. signalgrass plant response rating” value ([5]; Rate 125 g/ha, Postemergence) of the same molecule?
A: 3

Q: And the “Plant response rating, B. signalgrass” value ([5]; Rate 125 g/ha, Preemergence)?
A: 9

Q: What about the “Plant response rating, B. signalgrass” value ([5]; Rate 250 g/ha, Postemergence) of the same molecule?
A: 4

Q: And the “Plant response rating, B. signalgrass” value ([5]; Rate 250 g/ha, Preemergence)?
A: 9

Q: What about the “Plant response rating, B. signalgrass” value ([5]; Rate 500 g/ha, Postemergence) of the same molecule?
A: 5

Q: And the “Plant response rating, B. signalgrass” value ([5]; Rate 500 g/ha, Preemergence)?
A: 10

Q: And the “Plant response rating, Giant foxtail” value [6, 12]?
A: 0

Q: And the “Giant foxtail plant response rating” value ([6]; Rate 62 g/ha, Postemergence)?
A: 2

Q: And the “Giant foxtail plant response rating” value ([6]; Rate 125 g/ha, Postemergence)?
A: 2

Q: What about the “Plant response rating, Giant foxtail” value ([6]; Rate 125 g/ha, Preemergence) of the same molecule?
A: 1

Q: What about the “Plant response rating, Giant foxtail” value ([6]; Rate 250 g/ha, Postemergence) of the same molecule?
A: 2

Q: And the “Plant response rating, Giant foxtail” value ([6]; Rate 250 g/ha, Preemergence)?
A: 2

Q: What about the “Plant response rating, Giant foxtail” value ([6]; Rate 500 g/ha, Postemergence) of the same molecule?
A: 4

Q: And the “Plant response rating, Giant foxtail” value ([6]; Rate 500 g/ha, Preemergence)?
A: 4

Q: And the “Plant response rating, Morningglory” value [7, 12]?
A: 2

Q: What about the “Morningglory plant response rating” value ([7]; Rate 62 g/ha, Postemergence) of the same molecule?
A: 2

Q: And the “Morningglory plant response rating” value ([7]; Rate 125 g/ha, Postemergence)?
A: 4

Q: And the “Plant response rating, Morningglory” value ([7]; Rate 125 g/ha, Preemergence)?
A: 3

Q: What about the “Plant response rating, Morningglory” value ([7]; Rate 250 g/ha, Postemergence) of the same molecule?
A: 9

Q: What about the “Plant response rating, Morningglory” value ([7]; Rate 250 g/ha, Preemergence) of the same molecule?
A: 3

Q: And the “Plant response rating, Morningglory” value ([7]; Rate 500 g/ha, Postemergence)?
A: 10

Q: What about the “Plant response rating, Morningglory” value ([7]; Rate 500 g/ha, Preemergence) of the same molecule?
A: 9

Q: What about the “Plant response rating, Nutsedge” value [8, 12] of the same molecule?
A: 0

Q: And the “Nutsedge plant response rating” value ([8]; Rate 62 g/ha, Postemergence)?
A: 0

Q: What about the “Nutsedge plant response rating” value ([8]; Rate 125 g/ha, Postemergence) of the same molecule?
A: 1

Q: What about the “Plant response rating, Nutsedge” value ([8]; Rate 250 g/ha, Postemergence) of the same molecule?
A: 1

Q: What about the “Plant response rating, Nutsedge” value ([8]; Rate 500 g/ha, Postemergence) of the same molecule?
A: 1

Q: What about the “Plant response rating, Nutsedge” value ([8]; Rate 500 g/ha, Preemergence) of the same molecule?
A: 0

Q: What about the “Plant response rating, Cocklebur” value [9, 12] of the same molecule?
A: 0

Q: What about the “Cocklebur plant response rating” value ([9]; Rate 62 g/ha, Postemergence) of the same molecule?
A: 3

Q: And the “Cocklebur plant response rating” value ([9]; Rate 125 g/ha, Postemergence)?
A: 4

Q: What about the “Plant response rating, Cocklebur” value ([9]; Rate 125 g/ha, Preemergence) of the same molecule?
A: 0

Q: What about the “Plant response rating, Cocklebur” value ([9]; Rate 250 g/ha, Postemergence) of the same molecule?
A: 4

Q: And the “Plant response rating, Cocklebur” value ([9]; Rate 250 g/ha, Preemergence)?
A: 0

Q: And the “Plant response rating, Cocklebur” value ([9]; Rate 500 g/ha, Postemergence)?
A: 5

Q: And the “Plant response rating, Cocklebur” value ([9]; Rate 500 g/ha, Preemergence)?
A: 3

Q: And the “Plant response rating, Velvetleaf” value [10, 12]?
A: 1

Q: What about the “Velvetleaf plant response rating” value ([10]; Rate 62 g/ha, Postemergence) of the same molecule?
A: 4

Q: What about the “Velvetleaf plant response rating” value ([10]; Rate 125 g/ha, Postemergence) of the same molecule?
A: 5

Q: And the “Plant response rating, Velvetleaf” value ([10]; Rate 125 g/ha, Preemergence)?
A: 4

Q: And the “Plant response rating, Velvetleaf” value ([10]; Rate 250 g/ha, Postemergence)?
A: 6

Q: And the “Plant response rating, Velvetleaf” value ([10]; Rate 250 g/ha, Preemergence)?
A: 8

Q: What about the “Plant response rating, Velvetleaf” value ([10]; Rate 500 g/ha, Postemergence) of the same molecule?
A: 8

Q: What about the “Plant response rating, Velvetleaf” value ([10]; Rate 500 g/ha, Preemergence) of the same molecule?
A: 8

Q: And the “Plant response rating, Wheat” value [11, 12]?
A: 0

Q: What about the “Wheat plant response rating” value ([11]; Rate 62 g/ha, Postemergence) of the same molecule?
A: 2

Q: And the “Wheat plant response rating” value ([11]; Rate 125 g/ha, Postemergence)?
A: 2

Q: What about the “Plant response rating, Wheat” value ([11]; Rate 125 g/ha, Preemergence) of the same molecule?
A: 1

Q: And the “Plant response rating, Wheat” value ([11]; Rate 250 g/ha, Postemergence)?
A: 2

Q: What about the “Plant response rating, Wheat” value ([11]; Rate 250 g/ha, Preemergence) of the same molecule?
A: 2

Q: What about the “Plant response rating, Wheat” value ([11]; Rate 500 g/ha, Postemergence) of the same molecule?
A: 3

Q: What about the “Plant response rating, Wheat” value ([11]; Rate 500 g/ha, Preemergence) of the same molecule?
A: 3
